Results taken from the OligoGym collection.
Bases are written 5' to 3'; sugars and linkages follow in the same order, as letters with counts (s phosphorothioate, o phosphodiester; PS: all linkages phosphorothioate). The collection does not say whether C is 5-methylated. l = locked nucleic acid (LNA); d = 2'-deoxy (DNA)

target: Tau; test: rat primary cortical neurons, FLIPR, 25 uM ASO

Sequence	calcium oscillation score
CACCCACTTTCCTAATTC (sugars l3 d13 l2, PS)	65.6 % of control
CACCCACTTTCCTAATTCC (sugars l1 d16 l2, PS)	60.9 % of control
CACCCACTTTCCTAATTCCC (sugars l1 d17 l2, PS)	55.1 % of control
CACCCATCAATTTGGAAAGA (sugars l3 d14 l3, PS)	91.5 % of control
CACCCTAAACCATGAT (sugars l3 d10 l3, PS)	71.4 % of control
CACCCTTACACATAGC (sugars l3 d11 l2, PS)	60.6 % of control
CACCCTTACACATAGCT (sugars l3 d12 l2, PS)	55.6 % of control
CACCTCATTAAGATCAC (sugars l3 d10 l4, PS)	76.6 % of control
CACCTCCTATATTCTCAG (sugars l2 d12 l4, PS)	75.4 % of control
CACCTCCTGGTTTATG (sugars l3 d10 l3, PS)	65.3 % of control
CACCTCCTGGTTTATGATGG (sugars l3 d14 l3, PS)	0 % of control
CACCTTACCACTTTCA (sugars l3 d10 l3, PS)	115 % of control
CACCTTCAGCCCAACTT (sugars l4 d11 l2, PS)	41.6 % of control
CACCTTGCTCAGGTCA (sugars l3 d10 l3, PS)	134 % of control
CACCTTTTCATGTTAAA (sugars l4 d9 l4, PS)	97.5 % of control
CACCTTTTTCCATCTTACTA (sugars l2 d16 l2, PS)	67.5 % of control
CACTCAAGAAATGGTTTGCT (sugars l3 d14 l3, PS)	9.52 % of control
CACTCTAACATCTTAG (sugars l4 d8 l4, PS)	77.6 % of control
CACTCTCTGCATATAT (sugars l4 d9 l3, PS)	69 % of control
CACTCTCTGCATATATA (sugars l4 d10 l3, PS)	48 % of control
CACTCTGATACTATTAT (sugars l4 d9 l4, PS)	69 % of control
CACTGGCGACTTGTACACGA (sugars l3 d14 l3, PS)	5.18 % of control

Sequence	calcium oscillation score
CACTGTTACACATTTA (sugars l4 d8 l4, PS)	70.6 % of control
CACTGTTACACATTTAT (sugars l4 d9 l4, PS)	68 % of control
CACTTTACACATTAAATTTA (sugars l4 d12 l4, PS)	60.9 % of control
CACTTTCCTAATTCCCAA (sugars l2 d13 l3, PS)	72.7 % of control
CACTTTCCTAATTCCCAAA (sugars l3 d14 l2, PS)	68 % of control
CACTTTCCTAATTCCCAAAT (sugars l2 d16 l2, PS)	62.1 % of control
CAGAACTAAATTTACC (sugars l4 d8 l4, PS)	51.1 % of control
CAGAATATTACACCAT (sugars l4 d8 l4, PS)	102 % of control
CAGACACCACTGGCGACTTG (sugars l3 d14 l3, PS)	46.5 % of control
CAGACCATCAATTTCCC (sugars l2 d13 l2, PS)	75.7 % of control
CAGACCATCAATTTCCCT (sugars l2 d14 l2, PS)	72.5 % of control
CAGAGCTGGGTGGTGTCTTT (sugars l3 d14 l3, PS)	0 % of control
CAGAGGAACGTGTGGA (sugars l3 d10 l3, PS)	29.6 % of control
CAGATATTCATTCCCTC (sugars l2 d12 l3, PS)	64.4 % of control
CAGATTCCCCAACTCACA (sugars l2 d14 l2, PS)	71.5 % of control
CAGATTTAATTCTCACT (sugars l4 d9 l4, PS)	77.7 % of control
CAGATTTTACTTCCACCT (sugars l2 d14 l2, PS)	44.7 % of control
CAGCACACAGGCAGCCACTG (sugars l3 d14 l3, PS)	23.8 % of control
CAGCATTTCCATTTCATC (sugars l2 d13 l3, PS)	52.7 % of control
CAGCCACTGTTGCCAC (sugars l2 d12 l2, PS)	51.2 % of control
CAGCCATTTTCCATATA (sugars l3 d12 l2, PS)	47.6 % of control
CAGCCTACTTTATTCCC (sugars l2 d13 l2, PS)	79.2 % of control

Sequence	calcium oscillation score
CAGCCTACTTTATTCCCT (sugars l2 d14 l2, PS)	82.2 % of control
CAGCGTGATCTTCCAT (sugars l3 d10 l3, PS)	13.4 % of control
CAGCTAAGACCCTCAGGTTT (sugars l3 d14 l3, PS)	38.5 % of control
CAGCTAGCGTGGCGAG (sugars l3 d10 l3, PS)	0 % of control
CAGCTAGTGGTGCCACCTGA (sugars l3 d14 l3, PS)	16.5 % of control
CAGCTATACTATTTCA (sugars l4 d10 l2, PS)	60.2 % of control
CAGCTCTTCCATAAGCAGGG (sugars l3 d14 l3, PS)	60.6 % of control
CAGCTTCGTCTTCCAG (sugars l3 d10 l3, PS)	75.9 % of control
CAGCTTGTGGGTTTCAATCT (sugars l3 d14 l3, PS)	0 % of control
CAGGAGTTGTAAGC (sugars l3 d8 l3, PS)	77.5 % of control
CAGGCGCGAGCAGCGG (sugars l3 d10 l3, PS)	49.5 % of control
CAGGGACCCAATCTTCGACT (sugars l3 d14 l3, PS)	9.04 % of control
CAGGGACGTGGGTGATATTG (sugars l3 d14 l3, PS)	0 % of control
CAGGGAGGCAGACACCTCGT (sugars l3 d14 l3, PS)	50.9 % of control
CAGGTATCCAGCCATATTTC (sugars l3 d14 l3, PS)	27.5 % of control
CAGGTCTGGCATGGGCACGG (sugars l3 d14 l3, PS)	0 % of control
CAGGTTAAGTGATTAACCAA (sugars l3 d14 l3, PS)	17.4 % of control
CAGTAACATCCATTTC (sugars l4 d8 l4, PS)	87.6 % of control
CAGTAACATCCATTTCT (sugars l4 d11 l2, PS)	86.2 % of control
CAGTCCCGTCTTTGCT (sugars l3 d10 l3, PS)	0 % of control
CAGTCTTTATTAACAC (sugars l4 d8 l4, PS)	54 % of control
CAGTCTTTATTAACACT (sugars l3 d10 l4, PS)	50.7 % of control

Sequence	calcium oscillation score
CAGTTACCATCATACAT (sugars l3 d10 l4, PS)	89 % of control
CATAAATGACTATACTTATT (sugars l3 d14 l3, PS)	94.7 % of control
CATAATCCTACCACCAG (sugars l2 d12 l3, PS)	61.3 % of control
CATAGCACTTACTACTT (sugars l4 d10 l3, PS)	84.1 % of control
CATAGTCACTCTGGTG (sugars l3 d10 l3, PS)	1.9 % of control
CATATTCTTCCCTTAATA (sugars l3 d13 l2, PS)	81.1 % of control
CATATTCTTCCCTTAATAA (sugars l3 d13 l3, PS)	68 % of control
CATCAAATCCATGCAT (sugars l4 d8 l4, PS)	76.7 % of control
CATCAACACCTTTTAATTCA (sugars l2 d14 l4, PS)	98.4 % of control
CATCAATTTGGAAAGATGAA (sugars l3 d14 l3, PS)	62.5 % of control
CATCACCAAGTCCCAAA (sugars l2 d11 l4, PS)	81 % of control
CATCACTTCGAACTCC (sugars l3 d10 l3, PS)	≥ 200 % of control
CATCAGCCTTCATCACA (sugars l4 d11 l2, PS)	91.8 % of control
CATCAGTCTTATCTCCC (sugars l2 d13 l2, PS)	54.7 % of control
CATCCACTTAGACACTC (sugars l4 d11 l2, PS)	43.8 % of control
CATCCATTTTCTGACTC (sugars l4 d11 l2, PS)	52 % of control
CATCCATTTTCTGACTCT (sugars l4 d12 l2, PS)	42.4 % of control
CATCCTAAGTCAACCAC (sugars l3 d11 l3, PS)	72.7 % of control
CATCGCTTCCAGTC (sugars l3 d8 l3, PS)	116 % of control
CATCGCTTCCAGTCCC (sugars l3 d10 l3, PS)	39.1 % of control
CATCTAAACACCTCAATCCA (sugars l2 d16 l2, PS)	72.6 % of control
CATCTACTTTCTGTCACC (sugars l2 d14 l2, PS)	63.4 % of control

Sequence	calcium oscillation score
CATCTCTCTAGACATCT (sugars l4 d11 l2, PS)	79.4 % of control
CATCTCTCTAGACATCTC (sugars l2 d13 l3, PS)	64.6 % of control
CATCTTAATTCATTTAATTC (sugars l4 d12 l4, PS)	84.1 % of control
CATCTTCCTTTAGTTTT (sugars l4 d10 l3, PS)	50.9 % of control
CATGACATTTTAAACCC (sugars l3 d10 l4, PS)	69.2 % of control
CATGAGCACTAACTCTAAGT (sugars l3 d14 l3, PS)	47.6 % of control
CATGATCTTAGGCT (sugars l3 d8 l3, PS)	25.3 % of control
CATGATCTTAGGCTG (sugars l3 d9 l3, PS)	46 % of control
CATGATCTTAGGCTGG (sugars l3 d10 l3, PS)	7.83 % of control
CATGATTAATTACACCC (sugars l3 d11 l3, PS)	35.5 % of control
CATGATTGTGGGCTT (sugars l3 d9 l3, PS)	0 % of control
CATGATTGTGGGCTTA (sugars l3 d10 l3, PS)	0 % of control
CATGCAGTTTATTCCTGGCA (sugars l3 d14 l3, PS)	6.04 % of control
CATGCTTACACACCAC (sugars l2 d10 l4, PS)	82.9 % of control
CATGCTTACACACCACAC (sugars l2 d13 l3, PS)	73.5 % of control
CATGTCGATGCTGC (sugars l3 d8 l3, PS)	30.5 % of control
CATGTCGATGCTGCC (sugars l3 d9 l3, PS)	89.5 % of control
CATGTCGATGCTGCCG (sugars l3 d10 l3, PS)	67.3 % of control
CATTAACCCTTGATCATATT (sugars l3 d14 l3, PS)	36.3 % of control
CATTATCATCCATTCTG (sugars l3 d10 l4, PS)	47.3 % of control
CATTATTCTTTTTTTTTCCA (sugars l4 d14 l2, PS)	43.3 % of control
